Test results as given in paper PMC8771711, “Synthesis of Lasalocid-Based Bioconjugates and Evaluation of Their Anticancer Activity” (ACS Omega, 2022).

Key:
[1] = system: SW480, human primary colon cancer cell line; experiment: MTT assay, cytotoxicity in SW480; format: cell-based; settings: for IC50: MTT, 72 h, mean ± SD; for SW480 SI (selectivity index): SI = IC50 HaCaT / IC50 SW480
Description: (§1) The human cell lines SW480 (primary colon cancer), SW620 (lymph node metastatic colon cancer from the same patient as primary cancer cells), PC3 (metastatic prostate cancer), and HaCaT (immortalized keratinocytes) were obtained from the American Type Culture Collection (ATCC, Rockville, USA). The SW480 and SW620 cells were grown in MEM (ThermoSci, USA), PC3 in RPMI 1640, and HaCaT in DMEM High Glucose (Biowest SAS, France) supplemented with 10% foetal bovine serum (FBS), HEPES (20 mM), and antibiotics (100 U mL^–1 of penicillin and 100 μg mL^–1 of streptomycin). The cells were incubated in a humidified incubator at 37 °C/5% CO2, until 80–90% confluence was reached.
(§2) The cell viability was assessed by using of MTT salt [3-(4,5-dimethylthiazol-2-yl)-2,5-diphenyltetrazolium bromide] converted by mitochondrial dehydrogenase, occurring in living cells. The cells were seeded in 96-well plates at a density of 1 × 10^4 cells per well and allowed to adhere for 24 h at 37 °C in a CO2 humidified incubator. Then, the medium was removed and a fresh medium with various concentrations of tested compounds (from 10 to 120 μM) was added. The untreated cells were used as the control.
(§3) After 72 h incubation, the medium was replaced with 200 μL per well of free serum medium containing 0.5 mg mL^–1 MTT and incubated for 4 h at 37 °C in a CO2 humidified incubator. Subsequently, the medium was removed and dimethyl sulfoxide with isopropanol (1:1) was added to dissolve the formazan crystals. The optical density was measured using a UVM 340 reader (ASYS Hitech GmbH, Austria) at a wavelength of 570 nm. The experiments were repeated three times. The cell viability was calculated as the percent of MTT reduced in treated cells versus control cells (untreated cells). The number of viable cells cultured without tested compounds was assumed as 100%. The decreased relative MTT level indicates decreased cell viability. The IC50 values were estimated using CompuSyn version 1.0.

[2] = system: SW620, human metastatic colon cancer cell line; experiment: MTT assay, cytotoxicity in SW620; format: cell-based; settings: for IC50: MTT, 72 h, mean ± SD; for SW620 SI (selectivity index): SI = IC50 HaCaT / IC50 SW620
Description: as §1, §2, §3

[3] = system: PC3, human prostate cancer cell line; experiment: MTT assay, cytotoxicity in PC3; format: cell-based; settings: for IC50: MTT, 72 h, mean ± SD; for PC3 SI (selectivity index): SI = IC50 HaCaT / IC50 PC3
Description: as §1, §2, §3

[4] = system: HaCaT, human immortalized keratinocyte cell line; experiment: MTT assay, cytotoxicity in HaCaT; format: cell-based; settings: 72 h, mean ± SD, nontumor cells
Description: as §1, §2, §3

[5] = system: three cancer cell lines (SW480, SW620, PC3); experiment: MTT assay, span over the three cancer cell lines; format: cell-based, human; settings: for IC50: Homo sapiens, MTT, 72 h; for SI, span over three cancer cell lines: SI = IC50 HaCaT / IC50 cancer cell line
Description: as §1, §2, §3

PC3 cells = experiment: Annexin V-FITC/PI binding assay (flow cytometry) in PC3; format: cell-based, human; settings: IC50 concentration, 72 h
Description: The SW480, SW620, PC3, and HaCaT cells were cultured and harvested under the conditions mentioned in the Section 4.5 and seeded in 12-well plates (1 × 10^5 cells per well). […] The apoptotic effect was performed using the Annexin V-FITC/propidium iodide (PI) apoptosis assay kit (Becton Dickinson, Pharmingen), according to the manufacturer’s instructions, and analyzed by flow cytometry (Becton Dickinson). The cells which were Annexin V-FITC-positive and PI-negative were identified as early apoptotic and both Annexin V-FITC- and PI-positive as late apoptotic or necrotic. The experiment was repeated three times.

Compound	IC50 [1] [µM]	SW480 SI (selectivity index) [1]	IC50 [2] [µM]	SW620 SI (selectivity index) [2]	IC50 [3] [µM]	PC3 SI (selectivity index) [3]	IC50 [4] [µM]	IC50 ([1]; Homo sapiens, SW480) [µM]	IC50 ([2]; Homo sapiens, SW-620) [µM]	IC50 ([3]; Homo sapiens) [µM]	IC50 ([4]; Homo sapiens, HaCaT) [µM]	IC50 [5] [µM]	SI, span over three cancer cell lines [5]	percentage of late apoptotic PC3 cells (PC3 cells) [%]	percentage of necrotic PC3 cells (PC3 cells) [%]
O=C(CCCCCBr)[c-]1cccc1.[Fe+2].c1cc[cH-]c1 [FER, (6-bromo-1-oxohexyl)ferrocene, reference compound]	61 ± 0.98	1.9	55 ± 0.7	2.1	59 ± 0.78	1.9	115 ± 0.95								
BrCCC[P+](c1ccccc1)(c1ccccc1)c1ccccc1.[Br-] [TPP, (3-bromopropyl)triphenylphosphonium bromide, reference compound]		0.6		0.7		0.8		46 ± 1.1	39 ± 2.5	31 ± 0.98	26 ± 0.96				
C=C(C)[C@@H]1CC[C@]2(C(=O)O)CC[C@]3(C)[C@H](CC[C@@H]4[C@@]5(C)CC[C@H](O)C(C)(C)[C@@H]5CC[C@]43C)[C@@H]12 [BET, betulinic acid, reference compound]		1.0		1.7		1.5		105 ± 7	65 ± 3.7	71 ± 5.9	108 ± 1.3				
Nc1ccn([C@@H]2O[C@H](CO)[C@@H](O)C2(F)F)c(=O)n1 [GEM, gemcitabine, reference compound]		1.3		0.4		11		1.2 ± 0.05	3.4 ± 0.65	0.14 ± 0.02	1.5 ± 0.05	0.14 to 3.4	0.4–11		
CC[C@@H](C(=O)[C@@H](C)[C@@H](O)[C@H](C)CCc1ccc(C)c(O)c1C(=O)OC[C@H]1O[C@@H](n2cc(F)c(=O)[nH]c2=O)C[C@@H]1O)[C@H]1O[C@](CC)([C@H]2CC[C@](O)(CC)[C@H](C)O2)C[C@@H]1C [Compound 11, LAS–Floxuridine Conjugate]		1.6		2.6		3.8		31 ± 1.2	19 ± 2	13 ± 1.9	50 ± 0.59				
CC[C@@H](C(=O)[C@@H](C)[C@@H](O)[C@H](C)CCc1ccc(C)c(O)c1C(=O)OCCCCn1cc(F)c(=O)[nH]c1=O)[C@H]1O[C@](CC)([C@H]2CC[C@](O)(CC)[C@H](C)O2)C[C@@H]1C [Compound 8, LAS–5-Fluorouracil Conjugate]		0.5		2.4		9.2		67 ± 1.2	14 ± 1	3.6 ± 0.08	33 ± 3.4			33.16	34.88
CC[C@@H](C(=O)[C@@H](C)[C@@H](O)[C@H](C)CCc1ccc(C)c(O)c1C(=O)OCCOCCn1cc(F)c(=O)[nH]c1=O)[C@H]1O[C@](CC)([C@H]2CC[C@](O)(CC)[C@H](C)O2)C[C@@H]1C [Compound 10, LAS–5-Fluorouracil Conjugate]		0.5		1.1		1.0		22 ± 2.2	11 ± 1.4	12 ± 0.13	12 ± 0.59				
O=c1cc(CCl)occ1O [Compound 4]		1.4		2.0		2.0		28 ± 1.8	20 ± 2.6	20 ± 1.5	39 ± 0.45				
O=c1cc(CO)occ1O [KOJ, kojic acid, reference compound]		1.9		2.4		4.0		119 ± 2.8	94 ± 4	56 ± 3.3	225 ± 7.1				
CC[C@@H](C(=O)[C@@H](C)[C@@H](O)[C@H](C)CCc1ccc(C)c(O)c1C(=O)O)[C@H]1O[C@](CC)([C@H]2CC[C@](O)(CC)[C@H](C)O2)C[C@@H]1C [LAS, lasalocid]		2.2		2.6		11		7.2 ± 0.79	6.1 ± 0.28	1.4 ± 0.05	16 ± 1.9	1.4 to 7.2	2.2–11		
CC[C@@H](C(=O)[C@@H](C)[C@@H](O)[C@H](C)CCc1ccc(C)c(O)c1C(=O)OCCCCCCBr)[C@H]1O[C@](CC)([C@H]2CC[C@](O)(CC)[C@H](C)O2)C[C@@H]1C [Compound 5]		1.2		1.5		2.8		42 ± 1.6	34 ± 1.4	18 ± 0.98	50 ± 0.34				
O=c1[nH]c(=O)n(CCOCCBr)cc1F [Compound 3, 1-(2-(2-Bromoethoxy)ethyl)-5-fluorouracil]		1.9		2.2		2.5		55 ± 3.5	47 ± 3.8	42 ± 2.3	104 ± 2.2				
O=c1[nH]c(=O)n([C@H]2C[C@H](O)[C@@H](CO)O2)cc1F [FLO, floxuridine, reference compound]		2.4		4.3		2.7		16 ± 1.2	8.8 ± 0.69	14 ± 0.57	38 ± 0.72				
O=c1[nH]cc(F)c(=O)[nH]1 [5FU, 5-fluorouracil, reference compound]		1.2		1.3		4.7		43 ± 3.1	39 ± 1.2	11 ± 0.97	52 ± 1.6				
C=C(C)[C@@H]1CC[C@]2(C(=O)OCCCCCCOC(=O)c3c(CC[C@@H](C)[C@H](O)[C@H](C)C(=O)[C@H](CC)[C@H]4O[C@](CC)([C@H]5CC[C@](O)(CC)[C@H](C)O5)C[C@@H]4C)ccc(C)c3O)CC[C@]3(C)[C@H](CC[C@@H]4[C@@]5(C)CC[C@H](O)C(C)(C)[C@@H]5CC[C@]43C)[C@@H]12 [Compound 6, LAS–Betulinic Acid Conjugate]		0.05		0.4		0.1		320 ± 8.8	40 ± 2.1	200 ± 1.8	15 ± 0.59				
CC[C@@H](C(=O)[C@@H](C)[C@@H](O)[C@H](C)CCc1ccc(C)c(O)c1C(=O)OCCCCCCn1cc(F)c(=O)[nH]c1=O)[C@H]1O[C@](CC)([C@H]2CC[C@](O)(CC)[C@H](C)O2)C[C@@H]1C [Compound 9, LAS–5-Fluorouracil Conjugate]		0.7		0.8		1.2		66 ± 2.5	55 ± 1.5	36 ± 0.79	44 ± 1.8				
COc1cccc2c1C(=O)c1c(O)c3c(c(O)c1C2=O)C[C@@](O)(C(=O)CO)C[C@@H]3O[C@H]1C[C@H](N)[C@H](O)[C@H](C)O1 [DOX, doxorubicin, reference compound]								0.75 ± 0.1		0.59 ± 0.02	0.29 ± 0.1				
O=c1[nH]c(=O)n(CCCCBr)cc1F [Compound 1]		5.0		2.4		0.6		36 ± 0.79	75 ± 2.7	308 ± 5.2	179 ± 4.3				
O=c1[nH]c(=O)n(CCCCCCBr)cc1F [Compound 2, 1-(6-Bromohexyl)-5-fluorouracil]		2.2		6.2		73		103 ± 3.4	36 ± 0.83	3.1 ± 0.15	224 ± 2.8				
